{"source": "paper PMC10675340", "about": "“Preparation, Radiolabeling with ^68Ga/^177Lu and Preclinical Evaluation of Novel Angiotensin Peptide Analog: A New Class of Peptides for Breast Cancer Targeting” (Pharmaceuticals, 2023)", "key": {"[1]": {"assay": "In vivo biodistribution in normal Balb/c mice", "parameters": "species or system mouse", "settings": "female, mouse, iv, total radioactivity, normal Balb/c mice, i.v. tail vein, mean ± SD, n = 4-6", "procedure": "(§1) The in vivo biodistribution of ^68Ga-labeled AngII peptide analog was carried out in female Balb/c mice, at various time points, to observe the uptake in the normal tissues and organs and find the excretion route of the radiolabeled peptides. […] Low uptake and retention of the radiopeptide in the liver varying from 1.54 ± 0.28% ID/g at 45 min to 0.48 ± 0.17% ID/g at 2 h p.i. is probably related to the high hydrophilicity (log p = −0.55 ± 0.11) of the ^68Ga-labeled AngII peptide analog. […] The efficient clearance from the kidneys is possibly associated with the urinary excretion of the radiopeptide. […] The low amount of uptake in the bone (up to 0.37 ± 0.14% ID/g) (Table 2) indicates the minimal breakdown of the ^68Ga-labeled AngII peptide complex in vivo combined with the minor release of free ^68Ga. These findings are in agreement with the high in vitro metabolic stability observed in the human plasma for the radiolabeled AngII peptide. The accumulation in the extremely vascular organ lungs was also low (up to 1.11 ± 0.37% ID/g) signifying a low trapping by the lungs.\n(§2) Approval from the Institutional Animal Care and Use Committee was obtained for the animal protocol used. Additionally, strict international regulations govern the safe and proper use of laboratory animals employed during animal experiments. In vivo, biodistribution was performed on healthy female mice according to the methods essentially described previously. In summary, Balb/c mice (n = 5 per time point, body mass 20–25 g) at 45 min and 2 h were administered with the HPLC-purified AngII peptide (~1 µg, 100 µL, 0.925–1.85 MBq; 25–50 µCi) via lateral tail vein injection. At the specified time points, the animals were sacrificed by cervical dislocation. A fraction of the blood was collected from cardiac puncture. Urine was also collected and measured with the bladder contents. Major organs, such as the lungs, pancreas, stomach, liver, heart, kidneys, and intestines were isolated, weighed, and measured for radioactivity. The uptake values of the radiolabeled peptide in different organs are expressed as the percent injected dose per gram (% ID/g) of tissue/organ. The radioactivity in the urine with bladder contents is shown as the percent of the injected dose per organ (% ID/organ). To calculate the injected dose, a standard (20-fold dilution of injected dose) was prepared and counted together with animal tissue samples."}, "[2]": {"tested_on": "Balb/c mice", "assay": "In vivo biodistribution in normal Balb/c mice", "parameters": "species or system mouse", "settings": "normal Balb/c mice, 45 min and 2 h p.i.", "procedure": "as §1, §2"}, "[3]": {"assay": "In vivo receptor-blocking study in nude mice bearing MDA-MB-231 xenografts", "settings": "mouse, total radioactivity, nude mice with MDA-MB-231 xenografts, 2 h p.i., co-injected ~100 µg unlabeled AngII peptide analog, mean ± SD", "procedure": "(§3) To validate the selectivity of the AngII peptide analog for its intended target AT1 receptors, we performed a receptor-blocking assay by administering a blocking dose of ~100 μg of unlabeled AngII peptide premixed with the radiolabeled AngII peptide analog at 2 h p.i. […] Furthermore, a varying influence pattern of the pharmacological receptor blocking dose was detected mainly in the intestines, heart, and kidneys as the uptake in these organs was reduced to variable degrees depending on the degree of AT1 receptor expression by these organs and tissues (Table 2).\n(§4) For the receptor-blocking study, an additional group of mice was injected with the radiolabeled AngII peptide premixed with unlabeled AngII peptide (~100 μg) to serve as a receptor-blocking agent. In vivo, biodistribution and blocking studies were performed at 2 h p.i. as stated before."}, "[4]": {"tested_on": "AT1 receptor", "assay": "In vivo receptor-blocking study in nude mice bearing MDA-MB-231 xenografts", "settings": "mouse, total radioactivity, 2 h p.i., co-injected ~100 µg unlabeled AngII peptide analog, mean ± SD", "procedure": "as §3, §4"}, "[5]": {"tested_on": "athymic nude mice", "assay": "In vivo metabolic stability (radio-HPLC of mouse urine)", "settings": "urine collected at 2 h p.i.", "procedure": "Athymic nude mice were utilized for the metabolism study to determine the potential radio-metabolites in the urine. An aliquot of urine sample was collected by manual void at the time of sacrifice and analyzed by radio-HPLC. […] The results signified that most of the radioactivity (>80%) was still bound to the ^68Ga-AngII peptide analog (Figure 2). There were no major metabolites detected in the urine sample at 2 h p.i. A small hydrophilic metabolite peak was found at about 4 min for the urine sample. This finding confirms that the ^68Ga-AngII peptide analog is not prone to fast in vivo disintegration and is also in agreement with the results of high in vitro complex strength.\nTo determine the radio-metabolites of the ^68Ga-labeled AngII peptide analog, an aliquot of urine sample was collected by manual void at the time of sacrifice and mixed with an equal volume of CH3CN. The mixture was centrifuged at 7000 rpm for 5 min. The resulting supernatant was collected and passed through a 0.20 μm Millex-LG filter unit to remove any precipitate or foreign particles and then analyzed by radio-HPLC."}}, "note": "Read-outs that look alike come from different tables or passages of the source. Where a SMILES comes first, the peptide text is derived from it. [ ]: non-standard residue; d: D form. The star is where a group is joined. DOTA = O=C(O)CN1CCN(CC(=O)O)CCN(CC(=O)*)CCN(CC(=O)O)CC1; βAla = NCCC(=O)O"}
{"smiles": "CC[C@H](C)[C@H](NC(=O)[C@H](Cc1ccc(O)cc1)NC(=O)[C@@H](NC(=O)[C@H](CCCNC(=N)N)NC(=O)[C@H](CC(=O)O)NC(=O)CCNC(=O)[C@H](CCCCN)NC(=O)CN1CCN(CC(=O)O)CCN(CC(=O)O)CCN(CC(=O)O)CC1)C(C)C)C(=O)N[C@@H](Cc1c[nH]cn1)C(=O)N1CCC[C@H]1C(=O)N[C@@H](Cc1ccccc1)C(=O)N[C@@H](Cc1c[nH]c2ccccc12)C(=O)N[C@@H](CCCCN)C(=O)N[C@@H](Cc1ccc(O)cc1)C(N)=O", "note": "[^68Ga-DOTA-AngII peptide, metal not drawn] ({DOTA}-K[βAla]DRVYIHPFWKY-NH2)", "values": [{"measurement": "tissue uptake at 0.75 h", "setting": "[1]; blood, 45 min p.i., read-out: Blood uptake", "result": "0.85 ± 0.24", "unit": "%ID/g"}, {"measurement": "tissue uptake at 2 h", "setting": "[1]; blood, 2 h p.i., read-out: Blood uptake", "result": "0.61 ± 0.15", "unit": "%ID/g"}, {"measurement": "tissue uptake at 0.75 h", "setting": "[1]; heart, 45 min p.i., read-out: Heart uptake", "result": "1.39 ± 0.51", "unit": "%ID/g"}, {"measurement": "tissue uptake at 2 h", "setting": "[1]; heart, 2 h p.i., read-out: Heart uptake", "result": "0.99 ± 0.26", "unit": "%ID/g"}, {"measurement": "tissue uptake at 0.75 h", "setting": "[1]; intestines without contents, 45 min p.i., read-out: Intestines uptake (portion without contents)", "result": "1.45 ± 0.39", "unit": "%ID/g"}, {"measurement": "tissue uptake at 2 h", "setting": "[1]; intestines without contents, 2 h p.i., read-out: Intestines uptake (portion without contents)", "result": "1 ± 0.28", "unit": "%ID/g"}, {"measurement": "tissue uptake at 0.75 h", "setting": "[1]; kidneys, 45 min p.i., read-out: Kidneys uptake", "result": "9.95 ± 3.39", "unit": "%ID/g"}, {"measurement": "tissue uptake at 2 h", "setting": "[1]; kidneys, 2 h p.i., read-out: Kidneys uptake", "result": "3.78 ± 1.46", "unit": "%ID/g"}, {"measurement": "tissue uptake at 0.75 h", "setting": "[1]; liver, 45 min p.i., read-out: Liver uptake", "result": "1.54 ± 0.28", "unit": "%ID/g"}, {"measurement": "tissue uptake at 2 h", "setting": "[1]; liver, 2 h p.i., read-out: Liver uptake", "result": "0.48 ± 0.17", "unit": "%ID/g"}, {"measurement": "tissue uptake at 0.75 h", "setting": "[1]; lungs, 45 min p.i., read-out: Lungs uptake", "result": "1.11 ± 0.37", "unit": "%ID/g"}, {"measurement": "tissue uptake at 2 h", "setting": "[1]; lungs, 2 h p.i., read-out: Lungs uptake", "result": "0.6 ± 0.2", "unit": "%ID/g"}, {"measurement": "tissue uptake at 2 h", "setting": "[1]; muscle/bone, 2 h p.i., read-out: Muscle/bone uptake", "result": "0.28 ± 0.1", "unit": "%ID/g"}, {"measurement": "tissue uptake at 0.75 h", "setting": "[1]; pancreas, 45 min p.i., read-out: Pancreas uptake", "result": "0.5 ± 0.11", "unit": "%ID/g"}, {"measurement": "tissue uptake at 2 h", "setting": "[1]; pancreas, 2 h p.i., read-out: Pancreas uptake", "result": "0.33 ± 0.06", "unit": "%ID/g"}, {"measurement": "tissue uptake at 0.75 h", "setting": "[1]; spleen, 45 min p.i., read-out: Spleen uptake", "result": "0.51 ± 0.1", "unit": "%ID/g"}, {"measurement": "tissue uptake at 2 h", "setting": "[1]; spleen, 2 h p.i., read-out: Spleen uptake", "result": "0.31 ± 0.09", "unit": "%ID/g"}, {"measurement": "tissue uptake at 0.75 h", "setting": "[1]; stomach, 45 min p.i., read-out: Stomach uptake", "result": "1.06 ± 0.41", "unit": "%ID/g"}, {"measurement": "tissue uptake at 2 h", "setting": "[1]; stomach, 2 h p.i., read-out: Stomach uptake", "result": "0.81 ± 0.23", "unit": "%ID/g"}, {"measurement": "dose excreted at 0.75 h", "setting": "[1]; urine with bladder contents, 45 min p.i., read-out: Urine + Bladder (urinary excretion)", "result": "67 ± 8.9", "unit": "%"}, {"measurement": "dose excreted at 2 h", "setting": "[1]; urine with bladder contents, 2 h p.i., read-out: Urine + Bladder (urinary excretion)", "result": "80 ± 12.9", "unit": "%"}, {"measurement": "Radioactivity in the whole intestines (with contents)", "setting": "[2]", "result": "up to 2.97 % ID/g"}, {"measurement": "tissue uptake at 2 h", "setting": "[3]; blood, intravenous, read-out: Blood uptake, blocked", "result": "0.85 ± 0.2", "unit": "%ID/g"}, {"measurement": "tissue uptake at 2 h", "setting": "[3]; liver, read-out: Liver uptake, blocked", "result": "0.85 ± 0.24", "unit": "%ID/g"}, {"measurement": "tissue uptake at 2 h", "setting": "[3]; lungs, intravenous, read-out: Lungs uptake, blocked", "result": "0.89 ± 0.35", "unit": "%ID/g"}, {"measurement": "tissue uptake at 2 h", "setting": "[3]; pancreas, read-out: Pancreas uptake, blocked", "result": "0.54 ± 0.12", "unit": "%ID/g"}, {"measurement": "tissue uptake at 2 h", "setting": "[3]; spleen, intravenous, read-out: Spleen uptake, blocked", "result": "0.35 ± 0.09", "unit": "%ID/g"}, {"measurement": "tissue uptake at 2 h", "setting": "[3]; stomach, read-out: Stomach uptake, blocked", "result": "0.49 ± 0.18", "unit": "%ID/g"}, {"measurement": "tissue uptake at 2 h", "setting": "[4]; heart, intravenous, nude mice with MDA-MB-231 xenografts, read-out: Heart uptake, blocked", "result": "0.23 ± 0.1", "unit": "%ID/g"}, {"measurement": "tissue uptake at 2 h", "setting": "[4]; intestines without contents, nude mice with MDA-MB-231 xenografts, read-out: Intestines uptake (portion without contents), blocked", "result": "0.8 ± 0.2", "unit": "%ID/g"}, {"measurement": "tissue uptake at 2 h", "setting": "[4]; kidneys, intravenous, nude mice with MDA-MB-231 xenografts, read-out: Kidneys uptake, blocked", "result": "2.01 ± 0.87", "unit": "%ID/g"}, {"measurement": "tissue uptake at 2 h", "setting": "[4]; muscle/bone, nude mice with MDA-MB-231 xenografts, read-out: Muscle/bone uptake, blocked", "result": "0.24 ± 0.1", "unit": "%ID/g"}, {"measurement": "tissue uptake at 2 h", "setting": "[4]; tumor (MDA-MB-231 xenograft), MDA-MB-231 tumor in nude mice, read-out: Tumor uptake, blocked", "result": "0.6 ± 0.27", "unit": "%ID/g"}, {"measurement": "dose excreted at 2 h", "setting": "[4]; urine with bladder contents, intravenous, nude mice with MDA-MB-231 xenografts, read-out: Urine + Bladder (urinary excretion), blocked", "result": "43.5 ± 7.9", "unit": "%"}, {"measurement": "Radioactivity still bound to the radiopeptide in urine", "setting": "[5]", "result": "> 80", "unit": "%"}]}
